In brackets after ≈: the same amount, converted by molar mass. Several values for one entry are separate records, joined by “and”; a condition that tells them apart may be missing. Equal values may be shown once. Read-outs that look alike come from different tables or passages of the source.
Columns and labels:
Assay type in all cases: cell-based
Aureobasidium pullulans [1] = assay: Synergy testing of 2-way mixtures, 24 well plates; settings: A. pullulans
Description: (§1) For synergism testing of the 2-way mixtures 100 ul of each fungicide were filled into the 24 well plates (8 different rates) and 800 ul of 0.3% PDA media containing the spore suspension was added (see above). Different ratios of the 2 fungicide rates were tested at the same time.
(§2) Alternaria tenuissima, Penicillium citrinum, Stachybotrys chartarum, Aspergillus niger and Aureobasidium pullulans were separately cultivated on PDA media to […] sporulation. Spore suspensions were produced for each fungi.
(§3) For the mixtures of different fungicides the synergism was calculated based on the Colby equation, which is described below: […]
(§4) The fungicidal action to be expected, We, for a given combination of two fungicides can be calculated as follows (see COLBY, S. R. “Calculating synergistic and antagonistic response of herbicide combinations”. Weeds 15, pages 20-22; 1967): We=X+[Y×(100−X)/100] wherein:
(§5) If the activity actually observed is greater than the expected value We, there is a synergistic effect.
(§6) All rates below are expressed as mg ai/l (i.e. ppm).

Alternaria tenuissima = assay: Liquid culture assay on 24 well plates, solo ai (EC95/MIC); settings: for EC95: 24° C., 3-6 days; for MIC: Alternaria tenuissima, read-out: MIC Minimal Inhibition concentration
Description: as §2
(§7) Test method used: liquid culture assay on 24 well plates.
(§8) For solo (i.e. single) ai testing the formulated fungicide (100 ul) was filled into the 24 well plates (8 different rates: 100-0.05 mg ai/l final volume as described above) and 100 ul distilled water was added. Afterwards 800 ul of 0.3% PDA media was added to the plate. The spore suspension of the specific fungi was added to this media in advance containing approx. 100.000 spores/ml. The 24 well plates were sealed and incubated at 24° C.
(§9) Dependent on the growth properties of each organisms, the evaluation was done after 3 to 6 days, when the surface of the check well was covered with mycelium. The evaluation was performed by assessing the growth of the fungi related to the check growth. The results are expressed as % activity relative to the check (values of 0-100% growth). Afterwards the results were converted in % growth inhibition. EC95 values and also MIC (minimal inhibition concentration) values were derived for each compound.
(§10) For each solo compound a graph was drawn of percentage inhibition against the concentration of the fungicide. […] Also the concentration that gave the minimum inhibition concentration was derived as MIC value

Stachybotrys chartarum [2] = assay: as above; settings: for EC95: 24° C., 3-6 days; for MIC: Stachybotrys chartarum, read-out: MIC Minimal Inhibition concentration
Description: as §2, §7, §8, §9, §10

Aureobasidium pullulans [3] = assay: as above; settings: for EC95: 24° C., 3-6 days; for MIC: Aureobasidium pullulans, read-out: MIC Minimal Inhibition concentration
Description: as §2, §7, §8, §9, §10

Aspergillus niger [4] = assay: as above; settings: for EC95: 24° C., 3-6 days; for MIC: Aspergillus niger, read-out: MIC Minimal Inhibition concentration
Description: as §2, §7, §8, §9, §10

Penicillium citrinum [5] = assay: as above; settings: for EC95: 24° C., 3-6 days; for MIC: Penicillium citrinum, read-out: MIC Minimal Inhibition concentration
Description: as §2, §7, §8, §9, §10

Aspergillus niger [6] = assay: Synergy testing of 2-way mixtures, 24 well plates; settings: A. niger; for inh % (DFZ alone): rate (DFZ) 0.8 mg ai/l
Description: as §1, §2, §3, §4, §5, §6

Penicillium citrinum [7] = assay: Synergy testing of 2-way mixtures, 24 well plates; settings: P. citrinum, PPZ + DFZ test
Description: as §1, §2, §3, §4, §5, §6

Memnionella echinata = assay: Fungal growth on agar medium containing fungicide, petri dish, visual assessment; settings: after 23 days at 25° C.; for EC50: 552 h, read-out: Concentration required for 50% Activity
Description: (§11) A fungal growth medium was made comprising yeast extract (4 g) agar (8 g), magnesium sulphate (0.2 g), sodium nitrate (2.4 g), potassium chloride (0.2 g), potassium dihydrogen orthophosphate (0.6 g), glycerol (8 ml), distilled water (390 ml). Fungicides as set out in Tables 1 to 4 were added at levels of 5000, 100, 10, 1, 0.1 and 0.01 mg fungicide/liter of growth medium to give six different growth medium compositions for each fungicide. These growth media containing the fungicide were each put into petri dishes.
(§12) Cladosporium cladosporoides, Oligoporus placenta, Stachybotrys chartarum and Memnionella echinata were separately propagated on Luria agar to suppress sporulation and mycelial plugs were transferred upside down onto the petri dishes containing the growth medium.
(§13) A visual assessment was made of the surface of the petri dishes. The result recorded was the percentage of the surface that remained free of fungus. This was recorded as percentage activity
(§14) For each fungicide, a graph was drawn of percentage activity against concentration of fungicide in the growth medium. From this graph, the concentrations of fungicide required to achieve 50%, 80% and 95% activity was estimated. These figures are given in the results tables.
2. Memnionella echinata; Results after 23 days at 25° C.

Stachybotrys chartarum [8] = assay: as above; settings: for EC50: 528 h, read-out: Concentration required for 50% Activity; for EC50 / Concentration required for 80% Activity: after 22 days at 25° C.
Description: as §11, §12, §13, §14
1. Stachybotrys chartarum; Results after 22 days at 25° C.

Oligoporus placenta = assay: as above
Description: as §11, §12, §13, §14
4. Oligoporus placenta; Results.

[9] = system: Cladosporium cladosporioides; assay: as above; settings: for EC50: 624 h, read-out: Concentration required for 50% Activity; for EC50 / Concentration required for 80% Activity: after 26 days at 20° C.
Description: as §11, §12, §13, §14
3. Cladosporium cladosporioides; Results after 26 days at 20° C.

Stachybotrys chartarum [10] = assay: Synergy testing of 2-way mixtures, 24 well plates; settings: S. chartarum; rate (FDL) 0.05 mg ai/l
Description: as §1, §2, §3, §4, §5, §6

[11] = A. tenuissima, rates 0-100 mg ai/l, mean values of n = 5
[12] = S. chartarum, rates 0-100 mg ai/l, mean values of n = 5
[13] = A. pullulans, rates 0-100 mg ai/l, mean values of n = 5
[14] = A. niger, rates 0-100 mg ai/l, mean values of n = 5
[15] = P. citrinum, rates 0-100 mg ai/l, mean values of n = 5

| Compound | EC95 (Alternaria tenuissima; A. tenuissima) [mg ai/l] | MIC (Alternaria tenuissima; [11]) [µg/mL] | EC95 (Stachybotrys chartarum [2]; S. chartarum) [mg ai/l] | MIC (Stachybotrys chartarum [2]; [12]) [µg/mL] | EC95 (Aureobasidium pullulans [3]; A. pullulans) [mg ai/l] | MIC (Aureobasidium pullulans [3]; [13]) [µg/mL] | EC95 (Aspergillus niger [4]; A. niger) [mg ai/l] | MIC (Aspergillus niger [4]; [14]) [µg/mL] | EC95 (Penicillium citrinum [5]; P. citrinum) [mg ai/l] | MIC (Penicillium citrinum [5]; [15]) [µg/mL] | EC50 (Memnionella echinata) [µg/mL] | Concentration required for 80% Activity (Memnionella echinata) [mg/L] | Concentration required for 95% Activity (Stachybotrys chartarum [8]) [mg/L] | EC50 (Stachybotrys chartarum [8]) [µg/mL] | Concentration required for 80% Activity (Stachybotrys chartarum [8]) [mg/L] | Concentration required for 95% Activity (Oligoporus placenta) [mg/L] | Concentration required for 95% Activity [9] [mg/L] | EC50 [9] [µg/mL] | Concentration required for 80% Activity [9] [mg/L] | other results |
| --- | --- | --- | --- | --- | --- | --- | --- | --- | --- | --- | --- | --- | --- | --- | --- | --- | --- | --- | --- | --- |
| Cc1cc(C2CC2)nc(Nc2ccccc2)n1 [Cyprodinil] | >100 | > 100 | 46 | 50 (≈ 222 µM) | >100 | > 100 | 7.4 | 12.5 (≈ 55.5 µM) | >100 | > 100 | – | – | – | – | – | – | – | – | – | inh % (CDL alone) (Aureobasidium pullulans [1]; rate (CDL) 0.8 mg ai/l): 0%; inh % (CDL alone) (Aureobasidium pullulans [1]; rate (CDL) 1.6 mg ai/l): 10%; inh % (CDL alone) (Aureobasidium pullulans [1]; rate (CDL) 3.1 mg ai/l): 10%; inh % (CDL alone) (Aureobasidium pullulans [1]; rate (CDL) 12.5 mg ai/l): 30%; inh % (CDL alone) (Aureobasidium pullulans [1]; rate (CDL) 50 mg ai/l): 30%; inh % (CDL alone) (Aureobasidium pullulans [1]; rate (CDL) 100 mg ai/l): 30% |
| CC1COC(Cn2cncn2)(c2ccc(Oc3ccc(Cl)cc3)cc2Cl)O1 (centres unmarked) [Difenoconazole] | – | – | – | – | – | – | – | – | – | – | 5.4 (≈ 13.3 µM) | 43 | 23 | 0.68 (≈ 1.67 µM) | 3.5 | <0.1 | 0.79 | 0.04 (≈ 0.0985 µM) | 0.28 | inh % (DFZ alone) (Aureobasidium pullulans [1]; rate (DFZ) 0.05 mg ai/l, PPZ + DFZ test): 10%; inh % (DFZ alone) (Aureobasidium pullulans [1]; rate (DFZ) 0.2 mg ai/l, DFZ + FDL test): 70%; inh % (DFZ alone) (Aureobasidium pullulans [1]; rate (DFZ) 0.2 mg ai/l, DFZ + TBZ test, listed as DFZ): 70% and 90%; inh % (DFZ alone) (Aureobasidium pullulans [1]; rate (DFZ) 0.2 mg ai/l, PPZ + DFZ test): 70%; inh % (DFZ alone) (Aureobasidium pullulans [1]; rate (DFZ) 0.8 mg ai/l, DFZ + CDL test): 90%; inh % (DFZ alone) (Aureobasidium pullulans [1]; rate (DFZ) 0.8 mg ai/l, DFZ + TBZ test): 90%; inh % (DFZ alone) (Aureobasidium pullulans [1]; rate (DFZ) 1.6 mg ai/l, DFZ + CDL test): 90%; inh % (DFZ alone) (Aureobasidium pullulans [1]; rate (DFZ) 1.6 mg ai/l, DFZ + TBZ test): 90%; inh % (DFZ alone) (Aureobasidium pullulans [1]; rate (DFZ) 3.1 mg ai/l, DFZ + CDL test): 70%; inh % (DFZ alone) (Aureobasidium pullulans [1]; rate (DFZ) 3.1 mg ai/l, DFZ + FDL test): 70%; inh % (DFZ alone) (Aureobasidium pullulans [1]; rate (DFZ) 3.1 mg ai/l, DFZ + TBZ test): 70%; inh % (DFZ alone) (Aureobasidium pullulans [1]; rate (DFZ) 3.1 mg ai/l, PPZ + DFZ test): 50%; inh % (DFZ alone) (Aspergillus niger [6]; DFZ + TBZ test): 10%; inh % (DFZ alone) (Aspergillus niger [6]; PPZ + DFZ test): 30%; inh % (DFZ alone) (Penicillium citrinum [7]; rate (DFZ) 0.05 mg ai/l): 0%; inh % (DFZ alone) (Penicillium citrinum [7]; rate (DFZ) 0.2 mg ai/l): 10%; inh % (DFZ alone) (Penicillium citrinum [7]; rate (DFZ) 0.8 mg ai/l): 30% |
| N#Cc1c[nH]cc1-c1cccc2c1OC(F)(F)O2 [Fludioxonil] | 1.3 | – | 0.18 | – | >100 | – | >100 | – | 0.18 | – | – | – | – | – | – | – | – | – | – | inh % (FDL alone) (Stachybotrys chartarum [10]): 10%; inh % (FDL alone) (Aureobasidium pullulans [1]; rate (FDL) 0.8 mg ai/l): 10%; inh % (FDL alone) (Aureobasidium pullulans [1]; rate (FDL) 1.6 mg ai/l): 10%; inh % (FDL alone) (Aureobasidium pullulans [1]; rate (FDL) 3.1 mg ai/l): 10%; inh % (FDL alone) (Aureobasidium pullulans [1]; rate (FDL) 12.5 mg ai/l): 10%; inh % (FDL alone) (Aureobasidium pullulans [1]; rate (FDL) 50 mg ai/l): 10%; inh % (FDL alone) (Aureobasidium pullulans [1]; rate (FDL) 100 mg ai/l): 10%; inh % (FDL alone) (Aspergillus niger [6]; rate (FDL) 0.05 mg ai/l): 0%; inh % (FDL alone) (Aspergillus niger [6]; rate (FDL) 0.2 mg ai/l): 30%; inh % (FDL alone) (Aspergillus niger [6]; rate (FDL) 0.8 mg ai/l): 30%; inh % (FDL alone) (Aspergillus niger [6]; rate (FDL) 1.6 mg ai/l): 30%; inh % (FDL alone) (Aspergillus niger [6]; rate (FDL) 3.1 mg ai/l): 30%; inh % (FDL alone) (Aspergillus niger [6]; rate (FDL) 12.5 mg ai/l): 30%; inh % (FDL alone) (Aspergillus niger [6]; rate (FDL) 50 mg ai/l): 30%; inh % (FDL alone) (Aspergillus niger [6]; rate (FDL) 100 mg ai/l): 30%; MIC (Alternaria tenuissima): 1.6 µg/mL (≈ 6.45 µM); MIC (Stachybotrys chartarum [2]): 0.2 µg/mL (≈ 0.806 µM); MIC (Aureobasidium pullulans [3]): > 100 µg/mL; MIC (Aspergillus niger [4]): > 100 µg/mL; MIC (Penicillium citrinum [5]): 0.2 µg/mL (≈ 0.806 µM) |
| CCCC1COC(Cn2cncn2)(c2ccc(Cl)cc2Cl)O1 (centres unmarked) [Propiconazole] | – | – | – | – | – | – | – | – | – | – | 88 (≈ 257 µM) | >100 | 360 | 15 (≈ 43.8 µM) | 49 | 0.4 | 4.5 | 0.19 (≈ 0.555 µM) | 1.7 | inh % (PPZ alone) (Penicillium citrinum [7]; rate (PPZ) 0.8 mg ai/l): 70% |
| c1ccc2[nH]c(-c3cscn3)nc2c1 [Thiabendazole] | >100 | > 100 | 46 | 50 (≈ 248 µM) | 15 | 50 (≈ 248 µM) | 3.1 | 3.1 (≈ 15.4 µM) | 0.72 | 0.8 (≈ 3.98 µM) | 28 (≈ 139 µM) | 65 | 91 | 17 (≈ 84.5 µM) | 49 | >5000 | 8 | 0.78 (≈ 3.88 µM) | 3.5 | inh % (TBZ alone) (Aureobasidium pullulans [1]; rate (TBZ) 12.5 mg ai/l): 70%; inh % (TBZ alone) (Aspergillus niger [6]; rate (TBZ) 1.6 mg ai/l): 10% |
